Laboratory results reported in paper PMC5078989, “Targeted inhibition of the COP9 signalosome for treatment of cancer” (Nature Communications, 2016).

Test system: HCT116 cells
Assay: Immunoblotting of cullins, CRL components and substrates in HCT116 cells
Format: cell-based, human
Method: Figure 2 CSN5 inhibition results in the inactivation of a subset of CRLs and the stabilization of their substrates. Effect on CRL components and substrates after treatment of HCT116 cells with either 1 μM MLN4924 or 1 μM CSN5i-3. (a) Immunoblottings for Cul1 and its CRL components Rbx and Skp1; (b) for cullins Cul2, Cul3 and Cul4A; (c) for F-box protein Skp2 and the SCF^Skp2 substrates p21 and p27; (d) for F-box proteins Fbxo22 and Fbxo30; (e) for F-box protein βTrCP and the SCF^βTrCP substrates Wee1 and pIκBα; (f) for the adaptor KEAP1 and the Cul3^KEAP1 substrate Nrf2; (g) for F-box proteins Fbxw7 and Fbxo3.
Cells were maintained in a humidified incubator at 37 °C and 5% CO2. HCT116 cells (ATCC #CCL-247) were grown in McCoy's 5A medium (GIBCO #16600–082) supplemented with 10% fetal bovine serum (FBS), TE-1 (RIKEN BioResource Center, #RCB1894), NCI-H2030 (ATCC #CRL-591), SU-DHL-1 (DMSZ #ACC 356), NOMO-1 (HSRRB #IFO50474) and NCIH196 cells (ATCC, #CRL-5823) in RPMI-1640 medium (GIBCO#61870–010) supplemented with 10% FBS, 10 mM HEPES, 1 mM sodium pyruvate and THP-1 cells (ATCC #TIB-202) with additional 0.05 mM 2-mercaptoethanol. DMS273 cells (ECACC #950628) were cultured in Waymouth's MB 752/1 medium (GIBCO#11220–035) supplemented with 10% FBS. All cells were negatively tested for mycoplasma contamination either by the vendor or in house. For treatment with compounds, sub-confluent cells were either treated with inhibitors at the indicated concentrations or mock treated with an equivalent amount of DMSO (final content 0.1%). If not stated otherwise, cells were harvested after incubation for 16 h and subjected to SDS–PAGE and western blotting. The RNA interference experiment was performed with CSN5 stealth siRNA (#HSS116986) and stealth negative control siRNA (#12935–400) (Invitrogen), which were transfected at 10 nM into HCT116 cells using HiperFect (Qiagen) according to the manufacturer's protocols. Seventy-two hours after transfection, cells were harvested and subjected to SDS–PAGE and western blotting (see Supplementary Fig. 7 for all western blottings performed).
For further analysis, cell lysates were prepared by direct lysis with 2 × Sample buffer (65.8 mM Tris-HCl, pH 6.8, 2.1% SDS, 26.3% glycerol, 0.01% bromophenol blue and 20 mM DTT). Protein lysates from tumour powder were prepared in RIPA buffer (50 mM Tris-HCl pH 8.0, 150 mM NaCl, 1% Triton X-100, 2 mM EDTA, 0.5% sodium deoxycholate and 0.1% SDS) supplemented with 10 mM N-ethylmaleimide, protease inhibitor and phosphatase inhibitor cocktails (Roche Diagnostics). Cells from longer compound incubations were also lysed in RIPA buffer, which allows the protein concentration to be determined by BCA Protein Assay Kit (Pierce). Proteins were separated by SDS–PAGE using 4–20% Tris-Glycine Gels (Invitrogen) and subsequently transferred to polyvinylidene difluoride membranes using a Trans-Blot Turbo System (BioRad). […] Horseradish peroxidase-conjugated secondary antibodies (1:3,000) were purchased from Promega AG and bound antibody was detected by enhanced chemiluminescence (Pierce).

CC(C)n1nc(C(F)F)cc1C(=O)Nc1ccc([C@H]2[C@@H](O)CCCc3cncn32)c(-c2ccccc2)c1 [CSN5i-3, 3-(Difluoromethyl)-N-(6-((5S,6S)-6-hydroxy-6,7,8,9-tetrahydro-5H-imidazo[1,5-a]azepin-5-yl)-[1,1′-biphenyl]-3-yl)-1-isopropyl-1H-pyrazole-5-carboxamide]
degradation of Wee1, pIκB and Nrf2 (HCT116, 1 μM): did not affect their degradation
levels of SRMs Skp2, Fbxo22 and Fbxo30 (HCT116, 1 μM): degradation
levels of βTrCP, KEAP1, Fbxo3 and Fbxw7 (HCT116, 1 μM): remained stable
cullin-1 (Cul1) deneddylation in HCT116 cells (qualitative western blot analysis): accumulation of neddylated Cul1
